# Test results from publication PMC8766756, “Insights on Cancer Cell Inhibition, Subcellular Activities, and Kinase Profile of Phenylacetamides Pending 1H-Imidazol-5-One Variants” (Frontiers in Pharmacology, 2022).
# Several values for one entry are separate records, joined by “and”; a condition that tells them apart may be missing. Equal values may be shown once.
# How the values were obtained:
# Experiment in all cases: PamChip tyrosine kinase microarray
# Assay type in all cases: biochemical
# Conditions in all cases: 0.1 µM, HL60 lysate
# EphA3 (P29320) = target: T1, EphA3 (P29320) (Homo sapiens, UniProt P29320)
# T1 construct: purchased PamGene (PamChip PTK array, Upstream Kinase Analysis)
# T1 sequence (P29320 21-983): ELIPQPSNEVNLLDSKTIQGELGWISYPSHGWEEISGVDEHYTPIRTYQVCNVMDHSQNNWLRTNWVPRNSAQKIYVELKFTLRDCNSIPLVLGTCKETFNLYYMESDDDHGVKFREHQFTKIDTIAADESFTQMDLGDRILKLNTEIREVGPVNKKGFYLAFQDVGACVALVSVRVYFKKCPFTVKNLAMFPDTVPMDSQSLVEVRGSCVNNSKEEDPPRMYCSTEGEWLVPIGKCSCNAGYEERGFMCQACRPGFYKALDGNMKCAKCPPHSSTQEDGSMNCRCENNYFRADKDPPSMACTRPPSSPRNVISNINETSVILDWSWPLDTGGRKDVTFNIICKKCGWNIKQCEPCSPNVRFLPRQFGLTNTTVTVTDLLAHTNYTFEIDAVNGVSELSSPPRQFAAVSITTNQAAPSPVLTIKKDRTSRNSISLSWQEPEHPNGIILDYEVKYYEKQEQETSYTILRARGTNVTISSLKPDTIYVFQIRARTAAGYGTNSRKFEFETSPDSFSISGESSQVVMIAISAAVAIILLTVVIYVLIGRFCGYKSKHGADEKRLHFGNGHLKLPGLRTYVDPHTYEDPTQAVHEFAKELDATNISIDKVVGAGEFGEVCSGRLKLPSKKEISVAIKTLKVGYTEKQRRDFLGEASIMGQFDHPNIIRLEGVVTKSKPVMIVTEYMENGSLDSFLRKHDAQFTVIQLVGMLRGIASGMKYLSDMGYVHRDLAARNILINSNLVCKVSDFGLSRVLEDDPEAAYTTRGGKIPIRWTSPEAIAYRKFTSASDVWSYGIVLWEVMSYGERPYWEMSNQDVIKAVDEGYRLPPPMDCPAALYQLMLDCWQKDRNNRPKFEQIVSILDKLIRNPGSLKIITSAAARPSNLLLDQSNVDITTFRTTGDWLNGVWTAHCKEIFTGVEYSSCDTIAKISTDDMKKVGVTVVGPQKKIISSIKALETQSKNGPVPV
# Outline: (§1)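 HL60 (AML) cell lysate was spiked with compound at 0.001, 0.01, 0.1, 1, 10 and 50 µM, or 2% v/v DMSO as control, then profiled in technical replicates on a tyrosine kinase peptide array of 196 phosphosites. Kinase activity was inferred from peptide-set changes using an upstream kinase tool.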
# Ros (P08922) = target: T2, Ros (P08922) (Homo sapiens, UniProt P08922)
# T2 construct: purchased PamGene (PamChip PTK array, Upstream Kinase Analysis)
# T2 sequence (P08922 28-2347): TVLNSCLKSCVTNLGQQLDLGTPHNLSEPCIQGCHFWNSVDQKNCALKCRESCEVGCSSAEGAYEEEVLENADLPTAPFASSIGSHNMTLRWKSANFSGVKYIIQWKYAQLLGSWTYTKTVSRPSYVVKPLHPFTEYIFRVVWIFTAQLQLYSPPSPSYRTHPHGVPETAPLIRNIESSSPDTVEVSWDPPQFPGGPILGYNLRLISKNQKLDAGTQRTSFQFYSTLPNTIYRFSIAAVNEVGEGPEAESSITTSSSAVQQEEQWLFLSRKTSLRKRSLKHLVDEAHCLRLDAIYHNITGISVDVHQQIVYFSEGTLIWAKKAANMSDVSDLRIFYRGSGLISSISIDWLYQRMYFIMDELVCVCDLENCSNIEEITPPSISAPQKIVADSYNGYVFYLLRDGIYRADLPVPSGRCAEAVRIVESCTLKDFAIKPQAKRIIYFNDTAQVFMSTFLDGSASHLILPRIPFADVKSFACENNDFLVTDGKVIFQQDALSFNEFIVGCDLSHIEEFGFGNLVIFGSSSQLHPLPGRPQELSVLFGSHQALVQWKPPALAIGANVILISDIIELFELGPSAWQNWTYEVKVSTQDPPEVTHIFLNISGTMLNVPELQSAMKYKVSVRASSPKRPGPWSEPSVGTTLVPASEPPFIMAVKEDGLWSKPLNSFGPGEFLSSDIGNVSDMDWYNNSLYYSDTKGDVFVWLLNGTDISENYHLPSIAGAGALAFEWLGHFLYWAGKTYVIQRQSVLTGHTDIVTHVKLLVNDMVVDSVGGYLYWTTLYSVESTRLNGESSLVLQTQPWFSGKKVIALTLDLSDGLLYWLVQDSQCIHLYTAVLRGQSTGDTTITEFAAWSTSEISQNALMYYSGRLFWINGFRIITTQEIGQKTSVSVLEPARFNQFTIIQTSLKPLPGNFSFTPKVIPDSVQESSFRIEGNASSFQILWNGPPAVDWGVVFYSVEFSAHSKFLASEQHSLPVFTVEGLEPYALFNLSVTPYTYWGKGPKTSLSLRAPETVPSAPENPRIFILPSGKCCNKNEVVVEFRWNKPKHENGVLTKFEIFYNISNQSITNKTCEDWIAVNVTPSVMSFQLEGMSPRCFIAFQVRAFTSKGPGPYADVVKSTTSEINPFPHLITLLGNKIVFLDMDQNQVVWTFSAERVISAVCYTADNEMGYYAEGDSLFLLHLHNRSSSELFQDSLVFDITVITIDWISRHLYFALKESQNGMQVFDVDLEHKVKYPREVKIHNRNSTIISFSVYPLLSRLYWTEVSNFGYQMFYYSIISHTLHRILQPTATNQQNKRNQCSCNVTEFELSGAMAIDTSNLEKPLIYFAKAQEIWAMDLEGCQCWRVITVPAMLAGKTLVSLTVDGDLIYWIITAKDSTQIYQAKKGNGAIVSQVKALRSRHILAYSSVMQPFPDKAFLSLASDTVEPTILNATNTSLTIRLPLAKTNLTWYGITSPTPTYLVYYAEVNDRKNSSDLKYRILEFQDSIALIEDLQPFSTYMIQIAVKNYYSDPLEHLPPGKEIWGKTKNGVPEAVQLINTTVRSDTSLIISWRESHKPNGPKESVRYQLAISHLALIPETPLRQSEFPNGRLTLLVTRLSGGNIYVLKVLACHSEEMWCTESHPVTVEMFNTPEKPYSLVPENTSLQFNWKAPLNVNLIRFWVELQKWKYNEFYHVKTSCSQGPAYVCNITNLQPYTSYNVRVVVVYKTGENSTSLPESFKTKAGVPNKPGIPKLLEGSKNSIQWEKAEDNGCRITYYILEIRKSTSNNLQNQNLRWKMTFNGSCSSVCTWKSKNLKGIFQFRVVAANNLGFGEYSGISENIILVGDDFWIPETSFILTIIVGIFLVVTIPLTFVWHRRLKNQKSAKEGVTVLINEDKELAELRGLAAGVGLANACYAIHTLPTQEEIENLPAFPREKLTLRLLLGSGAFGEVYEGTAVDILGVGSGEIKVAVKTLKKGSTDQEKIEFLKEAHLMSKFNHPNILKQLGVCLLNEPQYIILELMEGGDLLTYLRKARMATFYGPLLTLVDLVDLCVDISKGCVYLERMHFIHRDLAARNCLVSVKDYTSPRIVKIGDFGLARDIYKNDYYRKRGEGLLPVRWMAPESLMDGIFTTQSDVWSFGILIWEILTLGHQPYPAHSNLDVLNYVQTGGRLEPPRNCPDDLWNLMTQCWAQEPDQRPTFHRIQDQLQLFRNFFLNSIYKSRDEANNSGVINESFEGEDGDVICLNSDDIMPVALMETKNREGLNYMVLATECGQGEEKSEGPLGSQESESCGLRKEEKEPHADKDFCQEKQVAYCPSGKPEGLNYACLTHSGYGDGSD
# Outline: as §1
# FGFR3 (P22607) = target: T3, FGFR3 (P22607) (Homo sapiens, UniProt P22607)
# T3 construct: purchased PamGene (PamChip PTK array, Upstream Kinase Analysis)
# T3 sequence (P22607 23-806): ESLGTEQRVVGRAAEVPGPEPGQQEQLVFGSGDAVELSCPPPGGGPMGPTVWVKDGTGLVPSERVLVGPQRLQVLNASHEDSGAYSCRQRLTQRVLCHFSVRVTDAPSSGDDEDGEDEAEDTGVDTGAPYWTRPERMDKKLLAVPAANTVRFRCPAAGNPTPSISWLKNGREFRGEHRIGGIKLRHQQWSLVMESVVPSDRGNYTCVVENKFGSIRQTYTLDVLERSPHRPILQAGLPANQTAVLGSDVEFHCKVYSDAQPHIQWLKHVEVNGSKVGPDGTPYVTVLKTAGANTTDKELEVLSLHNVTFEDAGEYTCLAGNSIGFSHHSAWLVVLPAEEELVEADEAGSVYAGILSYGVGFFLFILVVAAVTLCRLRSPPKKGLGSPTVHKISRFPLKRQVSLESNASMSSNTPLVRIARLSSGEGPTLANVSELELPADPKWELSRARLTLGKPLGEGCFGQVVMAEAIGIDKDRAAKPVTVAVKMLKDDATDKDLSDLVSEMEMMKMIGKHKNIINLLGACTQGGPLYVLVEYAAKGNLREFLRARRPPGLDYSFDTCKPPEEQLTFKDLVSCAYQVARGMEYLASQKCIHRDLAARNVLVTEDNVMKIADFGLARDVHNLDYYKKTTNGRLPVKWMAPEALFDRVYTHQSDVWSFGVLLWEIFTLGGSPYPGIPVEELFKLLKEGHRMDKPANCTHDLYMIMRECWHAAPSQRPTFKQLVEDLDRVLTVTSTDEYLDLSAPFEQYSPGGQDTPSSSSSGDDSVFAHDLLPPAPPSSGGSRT
# Outline: as §1
# ALK (Q9UM73) = target: T4, ALK (Q9UM73) (Homo sapiens, UniProt Q9UM73)
# T4 construct: purchased PamGene (PamChip PTK array, Upstream Kinase Analysis)
# T4 sequence (Q9UM73 19-1620): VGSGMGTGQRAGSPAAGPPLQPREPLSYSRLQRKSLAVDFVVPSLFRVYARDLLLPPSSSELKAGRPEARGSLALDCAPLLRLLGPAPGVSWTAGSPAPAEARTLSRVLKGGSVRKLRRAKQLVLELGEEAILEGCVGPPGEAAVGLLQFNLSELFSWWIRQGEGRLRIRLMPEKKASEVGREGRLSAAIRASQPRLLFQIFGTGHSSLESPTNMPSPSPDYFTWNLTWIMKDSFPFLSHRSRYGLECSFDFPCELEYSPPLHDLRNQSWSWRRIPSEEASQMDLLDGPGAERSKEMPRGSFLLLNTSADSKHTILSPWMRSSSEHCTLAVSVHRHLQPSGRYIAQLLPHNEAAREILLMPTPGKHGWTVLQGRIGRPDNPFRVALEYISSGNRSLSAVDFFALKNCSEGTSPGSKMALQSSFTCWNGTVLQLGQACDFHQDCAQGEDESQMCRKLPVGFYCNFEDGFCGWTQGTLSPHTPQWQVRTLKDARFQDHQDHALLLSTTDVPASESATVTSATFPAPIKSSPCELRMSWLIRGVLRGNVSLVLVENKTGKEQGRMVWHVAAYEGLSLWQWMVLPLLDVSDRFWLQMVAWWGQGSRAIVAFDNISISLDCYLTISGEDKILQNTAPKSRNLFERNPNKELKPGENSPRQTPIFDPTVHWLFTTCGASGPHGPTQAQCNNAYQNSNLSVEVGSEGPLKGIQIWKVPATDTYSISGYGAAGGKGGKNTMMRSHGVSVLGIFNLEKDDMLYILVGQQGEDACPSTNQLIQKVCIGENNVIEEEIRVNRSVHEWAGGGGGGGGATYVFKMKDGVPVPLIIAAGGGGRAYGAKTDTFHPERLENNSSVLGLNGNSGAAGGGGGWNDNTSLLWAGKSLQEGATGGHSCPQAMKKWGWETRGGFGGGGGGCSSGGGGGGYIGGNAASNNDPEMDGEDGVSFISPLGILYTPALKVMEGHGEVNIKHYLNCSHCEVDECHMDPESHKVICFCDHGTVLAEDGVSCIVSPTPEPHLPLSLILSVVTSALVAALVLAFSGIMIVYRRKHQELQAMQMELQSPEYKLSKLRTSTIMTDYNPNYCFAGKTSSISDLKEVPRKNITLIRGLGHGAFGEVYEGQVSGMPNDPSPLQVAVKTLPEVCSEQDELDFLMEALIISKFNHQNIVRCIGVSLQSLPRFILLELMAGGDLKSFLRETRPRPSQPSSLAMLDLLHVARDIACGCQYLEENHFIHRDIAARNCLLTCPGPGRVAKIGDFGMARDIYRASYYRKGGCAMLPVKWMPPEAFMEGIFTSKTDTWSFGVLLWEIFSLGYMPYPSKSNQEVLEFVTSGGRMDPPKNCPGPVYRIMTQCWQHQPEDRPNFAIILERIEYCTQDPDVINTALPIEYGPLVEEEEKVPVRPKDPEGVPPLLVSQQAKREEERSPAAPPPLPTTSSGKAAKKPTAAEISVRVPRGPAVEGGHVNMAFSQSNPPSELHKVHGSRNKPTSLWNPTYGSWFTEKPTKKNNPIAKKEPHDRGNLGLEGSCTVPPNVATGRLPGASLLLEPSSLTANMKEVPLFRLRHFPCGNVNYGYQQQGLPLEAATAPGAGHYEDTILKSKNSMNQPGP
# Outline: as §1
smiles,measurement,setting,value
"COc1ccc(/C=C2\N=C(C)N(c3ccc(CC(=O)NCc4ccccc4)cc3)C2=O)cc1 [Compound 4c, (Z)-N-Benzyl-2-(4-(4-(4-methoxybenzylidene)-2-methyl-5-oxo-4,5-dihydro-1H-imidazol-1-yl)phenyl)acetamide]",Mean Final score (Kinase score),EphA3 (P29320),1.273
same,Mean Kinase Statistic,EphA3 (P29320),-0.7527
same,Mean Significance Score,EphA3 (P29320),1.23
same,Mean Specificity Score,EphA3 (P29320),0.04291
same,Mean Significance Score,Ros (P08922),1.955
same,Mean Specificity Score,Ros (P08922),0.9862
same,Mean Final score (Kinase score),Ros (P08922); listed as KIM-161,2.90 and 2.9031
same,Mean Final score (Kinase score),FGFR3 (P22607),2.271
same,Mean Kinase Statistic,FGFR3 (P22607),-1.175
same,Mean Significance Score,FGFR3 (P22607),1.984
same,Mean Specificity Score,FGFR3 (P22607),0.3218
same,Mean Final score (Kinase score),ALK (Q9UM73),2.186
same,Mean Kinase Statistic,ALK (Q9UM73),-1.125
same,Mean Significance Score,ALK (Q9UM73),2.048
same,Mean Specificity Score,ALK (Q9UM73),0.1497
